Laboratory results published in patent US20040029928A1, “Novel propenohydroxamic acid derivatives” (priority 2000, published 2004).

What was measured:
[1] = target: T1, TACE (crude extracted protein from membrane fraction of THP-1 cells) (Homo sapiens, UniProt P78536); experiment: In vitro TACE inhibitory activity (fluorogenic peptide substrate); type: biochemical; conditions: crude TACE 10 μg/mL, substrate 20 μM, room temperature, at least 4 hours
T1 construct: The supernatant was collected, which was provided for use as a TACE crude extract; endogenous in cells; host or cells: THP-1 cells stimulated with LPS, silica and hydroxyurea; membrane fraction solubilised with 1% Triton X-100
T1 sequence (P78536 215-824): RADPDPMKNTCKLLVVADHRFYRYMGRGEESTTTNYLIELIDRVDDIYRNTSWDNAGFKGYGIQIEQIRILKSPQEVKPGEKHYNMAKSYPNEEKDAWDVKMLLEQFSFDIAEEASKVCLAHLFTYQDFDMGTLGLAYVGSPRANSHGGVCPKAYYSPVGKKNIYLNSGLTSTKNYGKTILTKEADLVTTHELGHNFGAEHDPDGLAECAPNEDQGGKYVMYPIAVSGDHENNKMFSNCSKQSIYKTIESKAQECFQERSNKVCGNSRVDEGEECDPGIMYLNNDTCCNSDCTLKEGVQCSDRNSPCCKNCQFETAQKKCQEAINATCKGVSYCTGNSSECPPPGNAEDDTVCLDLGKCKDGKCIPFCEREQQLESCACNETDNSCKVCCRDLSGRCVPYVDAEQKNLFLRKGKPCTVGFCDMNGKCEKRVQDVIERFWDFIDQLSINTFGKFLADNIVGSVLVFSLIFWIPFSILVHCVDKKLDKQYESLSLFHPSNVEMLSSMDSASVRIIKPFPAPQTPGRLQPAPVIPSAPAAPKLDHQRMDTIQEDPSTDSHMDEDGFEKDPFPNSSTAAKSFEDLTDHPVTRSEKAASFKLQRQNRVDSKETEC
Method: Test 1 (In Vitro TACE Inhibitory Activity)
(1) Crude Extraction of TACE from THP-1 Cell Membrane
To THP-1 cells (cell density: 2×10^6/mL) suspended in RPMI 1640 medium containing 1% FBS were added LPS (E. coli 055:B55, final concentration: 1 pg/mL), silica (0.014 μm, final concentration: 50 μg/mL) and hydroxyurea (final concenration: 2 mM), followed by cultivation at 37° C. for 16 hours under 5%-CO2 conditions. The resulting cells were then washed once with RPMI 1640 medium free of FBS. The cells were suspended in 3 times the pellet volume of Solution A (10 mM sodium phosphate (pH 7.4), 1 mM MgCl2, 30 mM NaCl, 0.02% NaN3, 5 μM PMSF (phenyl methyl sulfonyl fluoride)). The cells were ground by a Polytron homogenizer (5 sec×5 times, ice cooling for 1 to 2 minutes each time). The homogenate solution was stacked over 41% sucrose-Solution A, followed by centrifugation (150,000 g×1 hour). After centrifugation, the intermediate layer was collected and diluted with 4 volumes of Solution A, followed by centrifugation (150,000 g×20 min). A sufficient amount of a solubilizing solution (1%-Triton X-100-A solution) was added (protein concentration: 1 mg/mL) and the mixture was stirred (4° C.×1 hour). Stirring was followed by centrifugation (100,000 g×30 min, 4° C.). The supernatant was collected, which was provided for use as a TACE crude extract.
(2) Measurement of TACE Inhibitory Activity
TACE (crude extracted protein from membrane fraction of THP-1 cells, final concentration: 10 μg/mL), each of test compounds (DMSO final concentration: 1%) shown in Table 1 and an incubate solution (50 mM Tris-HCl (pH 7.4), 5 mM CaCl2, 0.002% NaN3, 0.002% Brij 35) was added to a 96-well black plate. After pre-incubation at room temperature for 30 minutes, a substrate (N-methylanthranilyl-LAQAVRSK(DNP)rr-NH2: product of PEPTIDE INSTITUTE, INC., final concentration: 20 μM) was added, followed by incubation at room temperature for at least 4 hours. The fluorescence intensity was measured using POLAR STAR (Ex: 340 nm, Em: 430 nm) and from it, TACE inhibitory activity (IC50 value) was calculated.

MMP-1 = target: T2, MMP-1 (Homo sapiens, UniProt P03956); experiment: Measurement of MMP-1 inhibitory activity; type: biochemical; conditions: MMP-1 (Cosmo Bio), fluorogenic substrate
T2 construct: purchased Cosmo Bio Co
T2 sequence (P03956 100-469): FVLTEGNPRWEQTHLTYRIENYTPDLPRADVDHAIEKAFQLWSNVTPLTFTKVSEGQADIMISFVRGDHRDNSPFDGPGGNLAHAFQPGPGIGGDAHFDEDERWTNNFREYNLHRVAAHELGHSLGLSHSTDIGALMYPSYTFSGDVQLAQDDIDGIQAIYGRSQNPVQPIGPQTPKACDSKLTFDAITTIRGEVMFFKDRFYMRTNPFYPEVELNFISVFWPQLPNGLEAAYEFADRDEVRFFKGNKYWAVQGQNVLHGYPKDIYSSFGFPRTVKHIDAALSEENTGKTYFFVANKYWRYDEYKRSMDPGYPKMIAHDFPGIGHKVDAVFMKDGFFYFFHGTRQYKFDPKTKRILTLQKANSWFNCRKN
Method: Test 2 (Measurement of MMP-1 Inhibitory Activity)
MMP-1 inhibitory activity (IC50 value) was measured in accordance with the above-described measuring method of TACE inhibitory activity by using MMP-1 (product of Cosmo Bio Co.) and, as a substrate, 7-methoxycoumarin-4-yl-acetyl-PLGL-[N^3-(2,4-dinitrophenyl)2,3-diaminopropionyl]-AR—NH2 (product of Peptide Institute Inc.). The fluorescence intensity was measured using POLAR STAR (Ex: 340 nm, Em: 405 nm).

Compound | melting point | IC50 [1] | IC50 (MMP-1)
O=C(/C=C(/c1ccccc1)c1cccc(NS(=O)(=O)N2CCCCC2)c1)NO [Compound 26, Z-3-[3-(1-Piperidinesulfonylamino)phenyl]-3-phenylpropenohydroxamic Acid] | 158 to 159 °C |  | 
O=C(/C=C(/c1ccccc1)c1cccc(NS(=O)(=O)c2cccc3ccccc23)c1)NO [Compound 27, Z-3-[3-(1-Naphthalenesulfonylamino)phenyl]-3-phenylpropenohydroxamic Acid] | 160 to 163 °C |  | 
CN(C)c1cccc2c(S(=O)(=O)Nc3cccc(/C(=C\C(=O)NO)c4ccccc4)c3)cccc12 [Compound 30, Z-3-[3-[5-(Dimethylamino)-1-naphthalenesulfonylamino)phenyl]-3-phenylpropenohydroxamic Acid] | 123 to 125 °C |  | 
O=C(/C=C(/c1ccccc1)c1ccc(NS(=O)(=O)c2ccc([N+](=O)[O-])cc2)cc1)NO [Compound 35, Z-3-[4-(4-Nitrobenzenesulfonylamino)phenyl]-3-phenylpropenohydroxamic Acid] | 146 to 148 °C |  | 
O=C(/C=C(/c1ccccc1)c1cc(NS(=O)(=O)c2ccc3ccccc3c2)ccc1Cl)NO [Compound 36, Z-3-[2-Chloro-5-(2-naphthalenesulfonylamino)phenyl]-3-phenylpropenohydroxamic Acid] | 173 to 175 °C |  | 
COc1ccc(S(=O)(=O)Nc2ccc(Cl)c(/C(=C\C(=O)NO)c3ccccc3)c2)cc1OC [Compound 37, Z-3-[2-Chloro-5-(3,4-dimethoxybenzenesulfonylamino)phenyl]-3-phenylpropenohydroxamic Acid] | 127 to 130 °C |  | 
COc1ccc(C(=O)Nc2cccc(C(=CC(=O)NO)c3cccc(NC(=O)c4ccc(OC)cc4)c3)c2)cc1 [Compound 39, 3,3-bis[3-(4-Methoxybenzoylamino)phenyl]propenohydroxamic Acid] | 198 to 200 °C |  | 
O=C(C=C(c1cccc(NS(=O)(=O)c2ccc(Br)cc2)c1)c1cccc(NS(=O)(=O)c2ccc(Br)cc2)c1)NO [Compound 40, 3,3-bis [3-(4-Bromobenzenesulfonylamino)phenyl]propenohydroxamic Acid] | 137 to 141 °C |  | 
COc1ccc(S(=O)(=O)Nc2cccc(C(=CC(=O)NO)c3cccc(NS(=O)(=O)c4ccc(OC)c(OC)c4)c3)c2)cc1OC [Compound 44, 3,3-bis[3-(3,4-Dimethoxybenzenesulfonylamino)phenyl]propenohydroxamic Acid] | 132 to 135 °C |  | 
O=C(C=C(c1cccc(NS(=O)(=O)c2ccc3ccccc3c2)c1)c1cccc(NS(=O)(=O)c2ccc3ccccc3c2)c1)NO [Compound 45, 3,3-bis[3-(2-Naphthalenesulfonylamino)phenyl]propenohydroxamic Acid] | 128 to 131 °C |  | 
O=C(C=C(c1cccc(NS(=O)(=O)c2cccc3cccnc23)c1)c1cccc(NS(=O)(=O)c2cccc3cccnc23)c1)NO [Compound 46, 3,3-bis[3-(8-Quinolinesulfonylamino)phenyl]propenohydroxamic Acid] | 152 to 156 °C |  | 
O=C(NO)C(F)=C(c1cccc(NS(=O)(=O)c2cccc3cccnc23)c1)c1cccc(NS(=O)(=O)c2cccc3cccnc23)c1 [Compound 49, 2-Fluoro-3,3-bis[3-(8-quinolinesulfonylamino)phenyl]propenohydroxamic Acid] | 150 to 153 °C |  | 
COc1ccc(C(=O)Nc2cccc(/C(=C\C(=O)NO)c3ccccc3)c2)cc1 [Compound 53, Z-3-[3-(4-Methoxybenzoylamino)phenyl]-3-phenylpropenohydroxamic Acid] | 134 to 137 °C |  | 
COc1ccc(S(=O)(=O)Nc2ccc(/C(=C\C(=O)NO)c3ccccc3)cc2)cc1 [Compound 54, Z-3-[4-(4-Methoxybenzenesulfonylamino)phenyl]-3-phenylpropenohydroxamic Acid] | 188 to 191 °C |  | 
COc1ccc(NC(=O)Nc2cccc(/C(=C\C(=O)NO)c3ccccc3)c2)cc1 [Compound 57, Z-3-[3-[3-(4-Methoxyphenyl)ureido]phenyl]-3-phenylpropenohydroxamic Acid] | 190 to 192 °C |  | 
COc1ccc(NC(=S)Nc2cccc(/C(=C\C(=O)NO)c3ccccc3)c2)cc1 [Compound 58, Z-3-[3-[3-(4-Methoxyphenyl)thioureido]phenyl]-3-phenylpropenohydroxamic Acid] | 176 to 179 °C |  | 
COc1ccc(S(=O)(=O)N(C)c2cccc(/C(=C\C(=O)NO)c3ccccc3)c2)cc1 [Compound 62, Z-3-[3-[N-(4-Methoxybenzenesulfonyl)-N-methylamino]phenyl]-3-phenylpropenohydroxamic Acid] |  | 8.6 nM | > 10 µM
COc1ccc(S(=O)(=O)N(c2cccc(/C(=C\C(=O)NO)c3ccccc3)c2)C(C)C)cc1 [Compound 63, Z-3-[3-[N-(4-Methoxybenzenesulfonyl)-N-isopropylamino]phenyl]-3-phenylpropenohydroxamic Acid] |  | 8.6 nM | > 10 µM
O=C(/C=C(/c1ccccc1)c1cccc(N(Cc2ccccc2)S(=O)(=O)c2ccc3ccccc3c2)c1)NO [Compound 65, Z-3-[3-[N-(2-Naphthalenesulfonyl)-N-benzylamino]phenyl]-3-phenylpropenohydroxamic Acid] | 88 to 90 °C |  | 
O=C(/C=C(/c1ccccc1)c1cccc(N(CCc2ccccc2)S(=O)(=O)c2ccc3ccccc3c2)c1)NO [Compound 66, Z-3-[3-[N-(2-Naphthalenesulfonyl)-N-(2-phenylethyl)amino]phenyl]-3-phenylpropenohydroxamic Acid] | 127 to 129 °C |  | 
O=C(/C=C(/c1ccccc1)c1cccc(N(Cc2cccnc2)S(=O)(=O)c2ccc3ccccc3c2)c1)NO [Compound 67, Z-3-[3-[N-(2-Naphthalenesulfonyl)-N-(3-pyridylmethyl)amino]phenyl]-3-phenylpropenohydroxamic Acid] | 168 to 170 °C |  | 
CN(c1cccc(/C(=C\C(=O)NO)c2ccccc2)c1)S(=O)(=O)c1cccc2cccnc12 [Compound 73, Z-3-[3-[N-(8-Quinolinesulfonyl)-N-methylamino]phenyl]-3-phenylpropenohydroxamic Acid] |  | 29 nM | > 10 µM
CN(C)c1cccc2c(S(=O)(=O)N(C)c3cccc(/C(=C\C(=O)NO)c4ccccc4)c3)cccc12 [Compound 74, Z-3-[3-[N-(5-(Dimethylamino)-1-naphthalenesulfonyl)-N-methylamino]phenyl]-3-phenylpropenohydroxamic acid] | 96 to 99 °C |  | 
COc1ccc(OC)c(S(=O)(=O)N(C)c2cccc(/C(=C\C(=O)NO)c3ccccc3)c2)c1 [Compound 76, Z-3-[3-[N-(2,5-Dimethoxybenzenesulfonyl)-N-methylamino]phenyl]-3-phenylpropenohydroxamic acid] | 151 to 153 °C |  | 
COc1ccc(S(=O)(=O)N(c2cccc(/C(=C/C(=O)NO)c3cccnc3)c2)C(C)C)cc1 [Compound 114, Z-3-[3-[N-(4-Methoxybenzenesulfonyl)-N-isopropylamino]phenyl]-3-(3-pyridyl)propenohydroxamic acid] | 195 to 197 °C |  | 
CCCN(c1cccc(/C(=C\C(=O)NO)c2cccnc2)c1)S(=O)(=O)c1ccc(OC)cc1 [Compound 115, E-3-[3-[N-(4-Methoxybenzenesulfonyl)-N-propylamino]phenyl]-3-(3-pyridyl)propenohydroxamic Acid] | 151 to 153 °C |  | 
